Consider five compounds from patent US20190233442A1, “SELECTIVE ESTROGEN RECEPTOR DOWN-REGULATORS (SERDS)” (Xavier University of Louisiana, priority 2016, published 2019).

The test system of data set [1] is BT474. The data set can be described thus: Cytotoxicity in breast cancer cell lines (BT474). The format is cell-based. The following applies: BT474 cells.
Data set [2] relates to MCF-7/TamR. The data set can be described thus: Cytotoxicity in breast cancer cell lines (MCF-7/TamR). In kind it is cell-based. The following applies: MCF-7/TamR cells.
In data set [3] the test system is T47D/PKCα. Kind of data set: Cytotoxicity in breast cancer cell lines (T47D/PKCα). In kind it is cell-based. The following applies: T47D/PKCα cells.
Data set [4] deals with MCF-7. Kind of data set: Cytotoxicity in breast cancer cell lines (MCF-7). The format is cell-based. The following applies: MCF-7 cells.
For data set [5] the following is noted: cited from earlier work.
The target of data set [6] is T1, estrogen receptor α (ERα) (Homo sapiens, UniProt P03372).
T1 construct: endogenous in cells; host or cells: MCF-7
T1 sequence (P03372 1-595): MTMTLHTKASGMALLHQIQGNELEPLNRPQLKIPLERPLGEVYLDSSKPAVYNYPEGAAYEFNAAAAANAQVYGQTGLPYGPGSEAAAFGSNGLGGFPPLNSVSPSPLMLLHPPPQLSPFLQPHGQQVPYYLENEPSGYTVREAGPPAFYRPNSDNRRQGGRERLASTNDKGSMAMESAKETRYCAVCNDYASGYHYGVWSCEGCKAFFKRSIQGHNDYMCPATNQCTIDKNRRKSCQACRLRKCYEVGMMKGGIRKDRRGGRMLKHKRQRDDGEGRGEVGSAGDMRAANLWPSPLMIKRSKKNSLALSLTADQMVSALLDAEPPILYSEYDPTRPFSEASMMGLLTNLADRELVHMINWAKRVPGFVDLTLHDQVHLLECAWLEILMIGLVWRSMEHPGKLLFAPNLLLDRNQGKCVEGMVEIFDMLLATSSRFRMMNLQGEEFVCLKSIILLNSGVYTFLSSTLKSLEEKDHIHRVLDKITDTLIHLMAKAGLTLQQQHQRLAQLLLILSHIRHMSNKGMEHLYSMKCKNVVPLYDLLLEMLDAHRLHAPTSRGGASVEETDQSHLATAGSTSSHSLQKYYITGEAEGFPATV
Kind of data set: Western blot of ER protein expression (down-regulation). In kind it is cell-based.

In data set [7] the target is T1, estrogen receptor α (ERα). The data set can be described thus: Binding to estrogen receptor α. Particulars: FIG. 15.

Consider 4-Hydroxytamoxifen [reference compound], for which the IC50 came out at 1430 nM in data set [1], 21100 nM in data set [2], 540 nM in data set [3] and 3.3 nM in data set [4].

For `C[C@]12CC[C@@H]3c4ccc(O)cc4C[C@@H](CCCCCCCCC[S+]([O-])CCCC(F)(F)C(F)(F)F)[C@H]3[C@@H]1CC[C@@H]2O` (some centres unmarked) [Fulvestrant], the peak blood concentration in data set [5] (higher dose of 500 mg, FINDER1 and FINDER2 clinical trials) is under 25 ng/mL. The “time to reach steady state concentration in patient plasma” value in data set [5] (higher dose of 500 mg) is on record as 1 month. For the same compound, the “bioavailability if administered orally” value in data set [5] (oral) is listed as “very poor bioavailability”. Besides, the “time to reach steady state serum concentration” value in data set [5] (standard intramuscular (i.m.) injection) is given as 3-4 months. In addition, the ER protein expression result in data set [6] (FIG. 14, cell line not stated) is given as “dramatically downregulated”.

Turning to `CCC(=C(c1ccc(/C=C/C(=O)O)cc1)c1ccc(B(O)O)cc1)c1ccccc1` [SERD 4], the IC50 in data set [2] (Homo sapiens, MCF7) amounted to 1200 nM; in data set [4] (Homo sapiens, MCF7), 1800 nM. Also, the ER protein expression entry in data set [6] (MCF-7 cells, FIG. 13) was “dramatically downregulated”. Besides, the “binding to estrogen receptor α (ERα)” value in data set [7] is “high affinity”.

`CC/C(=C(\c1ccc(/C=C/C(=O)O)cc1)c1ccc(B2OC(C)(C)C(C)(C)O2)cc1)c1ccccc1` [SERD 6]: the 50% inhibitory concentration (IC50) in data set [1] (Homo sapiens, BT-474) was 80500 nM; in data set [2] (Homo sapiens, MCF7) it was 4530 nM; in data set [3] (Homo sapiens) it was 6540 nM; in data set [4] (Homo sapiens, MCF7), 7730 nM.

On to `C[C@]12CC[C@@H]3c4ccc(B(O)O)cc4C[C@@H](CCCCCCCCC[S+]([O-])CCCC(F)(F)C(F)(F)F)[C@H]3[C@@H]1CC[C@@H]2O` (some centres unmarked) [SERD 9], for which the IC50 in data set [1] (Homo sapiens, BT-474) amounted to 390 nM; in data set [2] (Homo sapiens, MCF7), 44 nM; in data set [3] (Homo sapiens) it was 370 nM; in data set [4] (Homo sapiens, MCF7), 3.2 nM. In addition, the ER protein expression entry in data set [6] (FIG. 14, cell line not stated) is “dramatically downregulated”. Further, the “binding to estrogen receptor α (ERα)” value in data set [7] is listed as “high affinity”.
